Eleven compounds from PubChem BioAssay AID272 (DTP/NCI, 2004) can be followed below.

SMILES strings stand for the structures. Inconclusive results are not listed.

This assay concerns Lewis lung carcinoma i.m., BDF1 mice, T/C %. Description: NCI In Vivo Anticancer Drug Screen. Data for tumor model Lewis Lung Carcinoma (intramuscular) in B6D2F1 (BDF1) mice. The method, then: The antitumor activity of compounds was measured in mice bearing transplantable tumors. Survival or tumor size were measured and the results are expressed as the measurement made in the treated group (T) divided by the measurement made in the vehicle treated control group (C). The tumor model used in this assay is Lewis Lung Carcinoma (intramuscular) in B6D2F1 (BDF1) mice

Setting [1] is: endpoint: mean tumor weight (est.), dose: 0.25 mg/kg/injection, schedule: Q01DX011 (ip), vehicle: saline, higher = larger tumour.
[2] abbreviates: endpoint: mean tumor weight (est.), dose: 0.5 mg/kg/injection, schedule: Q01DX011 (ip), vehicle: saline, higher = larger tumour.
[3] abbreviates: endpoint: mean tumor weight (est.), dose: 1.0 mg/kg/injection, schedule: Q01DX011 (ip), vehicle: saline, higher = larger tumour.
Setting [4] is: endpoint: median survival time, dose: 0.25 mg/kg/injection, schedule: Q01DX011 (ip), vehicle: saline, higher = longer survival.
Setting [5] is: endpoint: median survival time, dose: 0.5 mg/kg/injection, schedule: Q01DX011 (ip), vehicle: saline, higher = longer survival.
Where [6] appears, read: endpoint: median survival time, dose: 12.5 mg/kg/injection, schedule: Q01DX011 (ip), vehicle: saline with Tween-80, higher = longer survival.
The mark [7] stands for this setting: endpoint: median survival time, dose: 1.0 mg/kg/injection, schedule: Q01DX011 (ip), vehicle: saline, higher = longer survival.
The mark [8] stands for this setting: endpoint: mean tumor weight, dose: 12.5 mg/kg/injection, schedule: Q01DX011 (ip), vehicle: other, higher = larger tumour.
The mark [9] stands for this setting: endpoint: mean tumor weight, dose: 25.0 mg/kg/injection, schedule: Q01DX011 (ip), vehicle: other, higher = larger tumour.
The mark [10] stands for this setting: endpoint: mean tumor weight (est.), dose: 12.5 mg/kg/injection, schedule: Q01DX011 (ip), vehicle: saline with Tween-80, higher = larger tumour.

For `C=CCN1/C(=C/C=C\c2sc3ccccc3[n+]2CC=C)Sc2ccccc21`, the T/C runs as follows: (endpoint: mean tumor weight (est.), dose: 0.07 mg/kg/injection, schedule: Q01DX011 (ip), vehicle: saline, higher = larger tumour) 89 % of control; (endpoint: mean tumor weight (est.), dose: 0.13 mg/kg/injection, schedule: Q01DX011 (ip), vehicle: saline, higher = larger tumour) 87 % of control; under setting [1], 117 % of control; under setting [2], 93 % of control; under setting [3], 113 % of control; (endpoint: median survival time, dose: 0.06 mg/kg/injection, schedule: Q01DX011 (ip), vehicle: saline, higher = longer survival) 93 % of control. The T/C runs as follows: (endpoint: median survival time, dose: 0.13 mg/kg/injection, schedule: Q01DX011 (ip), vehicle: saline, higher = longer survival) 86 % of control; under setting [4], 87 % of control; under setting [5], 89 % of control.

For `C[C@]12CC[C@H]3[C@@H](CC[C@]4(O)C[C@@H](O)CC[C@]34C=O)[C@@]1(O)CC[C@@H]2C1=CC(=O)OC1`, the T/C is, setting by setting: under setting [6], 106 % of control; (endpoint: median survival time, dose: 50.0 mg/kg/injection, schedule: Q01DX011 (ip), vehicle: saline with Tween-80, higher = longer survival) 115 % of control.

Consider `CCCCCCCCCCCC(c1ccccc1)[N+](C)(C)Cc1ccccc1` (configuration not stated), for which the T/C was 80 % of control under setting [1]; 70 % of control under setting [2]; 61 % of control under setting [3]; 87 % of control under setting [4]; 91 % of control under setting [5]; 120 % of control under setting [7].

`COc1cc([C@@H]2c3cc4c(c(O)c3C[C@H]3COC(=O)[C@@H]32)OCO4)cc(OC)c1O`: the T/C is 99 % of control (endpoint: mean tumor weight (est.), dose: 0.12 mg/kg/injection, schedule: Q01DX011 (ip), vehicle: saline, higher = larger tumour); 94 % of control under setting [1]; 66 % of control under setting [2].

For the compound `CC(C)NCC(=O)c1ccc(O)c(O)c1`, the T/C is 90 % of control (endpoint: mean tumor weight (est.), dose: 42.5 mg/kg/injection, schedule: Q01DX011 (ip), vehicle: saline, higher = larger tumour); 93 % of control (endpoint: mean tumor weight (est.), dose: 85.0 mg/kg/injection, schedule: Q01DX011 (ip), vehicle: saline, higher = larger tumour); 120 % of control (endpoint: median survival time, dose: 42.5 mg/kg/injection, schedule: Q01DX011 (ip), vehicle: saline, higher = longer survival); 90 % of control (endpoint: median survival time, dose: 85.0 mg/kg/injection, schedule: Q01DX011 (ip), vehicle: saline, higher = longer survival).

With `CC(=O)C(O)N1C(=O)C=CC1=O` (configuration not stated), the T/C runs as follows: (endpoint: median survival time, dose: 0.62 mg/kg/injection, schedule: Q01DX011 (ip), vehicle: water, higher = longer survival) 88 % of control; (endpoint: median survival time, dose: 1.25 mg/kg/injection, schedule: Q#A X022 (ip), vehicle: water, higher = longer survival) 120 % of control; (endpoint: median survival time, dose: 2.5 mg/kg/injection, schedule: Q01DX011 (ip), vehicle: water, higher = longer survival) 123 % of control; (endpoint: median survival time, dose: 2.5 mg/kg/injection, schedule: Q#A X022 (ip), vehicle: water, higher = longer survival) 120 % of control; (endpoint: median survival time, dose: 5.0 mg/kg/injection, schedule: Q#A X022 (ip), vehicle: water, higher = longer survival) 113 % of control.

`Nc1nc(=S)c2ncn(C3CC(O)C(CO)O3)c2[nH]1` (configuration not stated): the T/C runs as follows: (endpoint: mean tumor weight, dose: 3.12 mg/kg/injection, schedule: Q01DX011 (ip), vehicle: other, higher = larger tumour) 120 % of control; (endpoint: mean tumor weight, dose: 6.25 mg/kg/injection, schedule: Q01DX011 (ip), vehicle: other, higher = larger tumour) 112 % of control; under setting [8], 120 % of control; under setting [9], 69 % of control; (endpoint: median survival time, dose: 1.56 mg/kg/injection, schedule: Q01DX011 (ip), vehicle: other, higher = longer survival) 112 % of control; (endpoint: median survival time, dose: 3.12 mg/kg/injection, schedule: Q01DX011 (ip), vehicle: other, higher = longer survival) 95 % of control. Moreover, the T/C (endpoint: median survival time, dose: 6.25 mg/kg/injection, schedule: Q01DX011 (ip), vehicle: other, higher = longer survival) is 102 % of control; the T/C (endpoint: median survival time, dose: 12.5 mg/kg/injection, schedule: Q01DX011 (ip), vehicle: other, higher = longer survival) was 112 % of control; the T/C (endpoint: median survival time, dose: 25.0 mg/kg/injection, schedule: Q01DX011 (ip), vehicle: other, higher = longer survival) was 112 % of control.

`CC(=O)OC1C(=O)C(O)C(C)OC1O[C@@H]1C[C@@]2(C)[C@@H]3CC=C4[C@@H](C[C@H](O)C(=O)C4(C)C)[C@]3(C)C(=O)C[C@]2(C)[C@H]1[C@@](C)(O)C(=O)/C=C/C(C)(C)O` (some centres not stated): the T/C by setting is: (endpoint: mean tumor weight, dose: 0.5 mg/kg/injection, schedule: Q01DX011 (ip), vehicle: saline, higher = larger tumour) 41 % of control; (endpoint: mean tumor weight, dose: 1.0 mg/kg/injection, schedule: Q01DX011 (ip), vehicle: saline, higher = larger tumour) 32 % of control; (endpoint: mean tumor weight, dose: 2.0 mg/kg/injection, schedule: Q01DX011 (ip), vehicle: saline, higher = larger tumour) 41 % of control; under setting [5], 113 % of control; under setting [7], 89 % of control; (endpoint: median survival time, dose: 2.0 mg/kg/injection, schedule: Q01DX011 (ip), vehicle: saline, higher = longer survival) 91 % of control.

Regarding `CCCCCCCCCCCCCCCC(=O)N(C/C=C/CN(CCCN(C)C)C(=O)CCCCCCCCCCCCCCC)CCCN(C)C`, the T/C under setting [10] is 44 % of control and the T/C under setting [6] is 92 % of control.

Take `O=C1C(=O)c2ccccc2C(O)=C1CC=C(Cl)Cl`: the T/C by setting is: (endpoint: mean tumor weight (est.), dose: 6.25 mg/kg/injection, schedule: Q01DX011 (ip), vehicle: saline with Tween-80, higher = larger tumour) 93 % of control; under setting [10], 86 % of control; (endpoint: mean tumor weight (est.), dose: 25.0 mg/kg/injection, schedule: Q01DX011 (ip), vehicle: saline with Tween-80, higher = larger tumour) 61 % of control; (endpoint: mean tumor weight (est.), dose: 50.0 mg/kg/injection, schedule: Q01DX011 (ip), vehicle: saline with Tween-80, higher = larger tumour) 79 % of control; (endpoint: mean tumor weight, dose: 3.75 mg/kg/injection, schedule: Q01DX011 (oral), vehicle: saline, higher = larger tumour) 40 % of control; (endpoint: mean tumor weight, dose: 7.5 mg/kg/injection, schedule: Q01DX011 (ip), vehicle: saline, higher = larger tumour) 54 % of control. The T/C is 41 % of control (endpoint: mean tumor weight, dose: 7.5 mg/kg/injection, schedule: Q01DX011 (oral), vehicle: saline, higher = larger tumour); 102 % of control (endpoint: mean tumor weight, dose: 10.0 mg/kg/injection, schedule: Q01DX011 (ip), vehicle: saline, higher = larger tumour); 71 % of control under setting [8]; 43 % of control (endpoint: mean tumor weight, dose: 15.0 mg/kg/injection, schedule: Q01DX011 (ip), vehicle: saline, higher = larger tumour); 91 % of control (endpoint: mean tumor weight, dose: 20.0 mg/kg/injection, schedule: Q01DX011 (ip), vehicle: saline, higher = larger tumour); 88 % of control under setting [9]. The T/C reads like this: (endpoint: mean tumor weight, dose: 30.0 mg/kg/injection, schedule: Q01DX011 (ip), vehicle: saline, higher = larger tumour) 30 % of control; (endpoint: mean tumor weight, dose: 40.0 mg/kg/injection, schedule: Q01DX011 (ip), vehicle: saline, higher = larger tumour) 82 % of control; (endpoint: mean tumor weight, dose: 50.0 mg/kg/injection, schedule: Q01DX011 (ip), vehicle: other, higher = larger tumour) 55 % of control; (endpoint: median survival time, dose: 3.75 mg/kg/injection, schedule: Q01DX011 (oral), vehicle: saline, higher = longer survival) 100 % of control; (endpoint: median survival time, dose: 6.25 mg/kg/injection, schedule: Q01DX011 (ip), vehicle: saline with Tween-80, higher = longer survival) 89 % of control; (endpoint: median survival time, dose: 7.5 mg/kg/injection, schedule: Q01DX011 (ip), vehicle: saline, higher = longer survival) 111 % of control. Also, the T/C was 101 % of control (endpoint: median survival time, dose: 7.5 mg/kg/injection, schedule: Q01DX011 (oral), vehicle: saline, higher = longer survival); 93 % of control under setting [6]; 113 % of control (endpoint: median survival time, dose: 15.0 mg/kg/injection, schedule: Q01DX011 (ip), vehicle: saline, higher = longer survival); 87 % of control (endpoint: median survival time, dose: 20.0 mg/kg/injection, schedule: Q01DX011 (ip), vehicle: saline, higher = longer survival); 89 % of control (endpoint: median survival time, dose: 25.0 mg/kg/injection, schedule: Q01DX011 (ip), vehicle: saline with Tween-80, higher = longer survival); 108 % of control (endpoint: median survival time, dose: 30.0 mg/kg/injection, schedule: Q01DX011 (ip), vehicle: saline, higher = longer survival).

Take `O=NN(CCCl)C(=O)NCc1ccc(-c2ccc(CNC(=O)N(CCCl)N=O)cc2)cc1`: the T/C was 104 % of control (endpoint: median survival time, dose: 108.0 mg/kg/injection, schedule: Q07DX003 (ip), vehicle: Klucel (hydroxypropylcellulose) (HPC), higher = longer survival) and 93 % of control (endpoint: median survival time, dose: 180.0 mg/kg/injection, schedule: Q07DX003 (ip), vehicle: Klucel (hydroxypropylcellulose) (HPC), higher = longer survival).
